Measured values: ChEMBL document CHEMBL4002580, “Chloromethylhalicyclamine B, a Marine-Derived Protein Kinase CK1δ/ε Inhibitor” (J Nat Prod, 2016)
The source made the active and inactive calls. No cut-off for these calls is given here.

Experiments:
[1] = biological target: T1, Dual specificity tyrosine-phosphorylation-regulated kinase 2 (Homo sapiens) (UniProt Q92630); assay: Inhibition of human recombinant GST-fused DYRK2 expressed in Escherichia coli at 0.003 to 10 uM using RS peptide as substrate after 30 mins in presence of [gamma-33P]ATP by scintillation counting method
T1 sequence (whole entry): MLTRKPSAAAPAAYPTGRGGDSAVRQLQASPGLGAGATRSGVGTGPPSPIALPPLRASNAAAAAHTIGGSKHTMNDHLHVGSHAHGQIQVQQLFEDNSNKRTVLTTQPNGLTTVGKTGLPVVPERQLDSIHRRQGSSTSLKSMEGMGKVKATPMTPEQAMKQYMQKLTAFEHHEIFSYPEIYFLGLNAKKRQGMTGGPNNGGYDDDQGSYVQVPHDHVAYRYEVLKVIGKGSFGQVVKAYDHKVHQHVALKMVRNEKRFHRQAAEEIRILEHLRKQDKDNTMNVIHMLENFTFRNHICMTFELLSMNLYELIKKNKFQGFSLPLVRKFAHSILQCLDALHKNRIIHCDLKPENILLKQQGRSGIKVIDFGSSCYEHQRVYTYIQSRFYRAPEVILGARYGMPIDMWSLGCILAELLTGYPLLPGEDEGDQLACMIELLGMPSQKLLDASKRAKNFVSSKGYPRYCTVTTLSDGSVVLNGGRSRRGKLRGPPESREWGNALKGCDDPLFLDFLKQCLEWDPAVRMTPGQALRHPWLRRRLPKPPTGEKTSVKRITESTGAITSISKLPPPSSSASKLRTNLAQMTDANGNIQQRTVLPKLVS

Leishmania major = assay: Inhibition of Leishmania major recombinant CK1 expressed in Escherichia coli at 0.003 to 10 uM using CKS peptide as substrate after 30 mins in presence of [gamma-33P]ATP by scintillation counting method
[2] = biological target: Dual specificity protein kinase CLK2 (Mus musculus) (UniProt O35491); assay: Inhibition of mouse recombinant GST-fused CLK2 expressed in Escherichia coli at 0.003 to 10 uM using RS peptide as substrate after 30 mins in presence of [gamma-33P]ATP by scintillation counting method
Dual specificity protein kinase CLK2 (Mus musculus), sequence (O35491 whole entry, looked up, the tested form may be a part): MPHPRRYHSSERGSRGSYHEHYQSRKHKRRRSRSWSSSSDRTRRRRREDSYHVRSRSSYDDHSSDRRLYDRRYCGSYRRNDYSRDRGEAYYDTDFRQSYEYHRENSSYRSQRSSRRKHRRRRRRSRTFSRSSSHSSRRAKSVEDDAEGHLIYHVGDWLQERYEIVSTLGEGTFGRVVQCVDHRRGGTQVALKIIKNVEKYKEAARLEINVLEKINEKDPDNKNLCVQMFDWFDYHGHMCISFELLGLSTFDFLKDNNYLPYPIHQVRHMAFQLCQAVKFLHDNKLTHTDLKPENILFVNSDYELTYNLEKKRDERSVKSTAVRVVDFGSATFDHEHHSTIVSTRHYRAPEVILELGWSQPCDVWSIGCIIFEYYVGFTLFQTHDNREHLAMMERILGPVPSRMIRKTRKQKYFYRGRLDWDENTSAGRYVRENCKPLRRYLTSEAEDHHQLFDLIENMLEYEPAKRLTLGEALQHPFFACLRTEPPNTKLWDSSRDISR

[3] = biological target: Dual specificity protein kinase CLK4 (Mus musculus) (UniProt O35493); assay: Inhibition of mouse recombinant GST-fused CLK4 expressed in Escherichia coli at 0.003 to 10 uM using RS peptide as substrate after 30 mins in presence of [gamma-33P]ATP by scintillation counting method
Dual specificity protein kinase CLK4 (Mus musculus), sequence (O35493 whole entry, looked up, the tested form may be a part): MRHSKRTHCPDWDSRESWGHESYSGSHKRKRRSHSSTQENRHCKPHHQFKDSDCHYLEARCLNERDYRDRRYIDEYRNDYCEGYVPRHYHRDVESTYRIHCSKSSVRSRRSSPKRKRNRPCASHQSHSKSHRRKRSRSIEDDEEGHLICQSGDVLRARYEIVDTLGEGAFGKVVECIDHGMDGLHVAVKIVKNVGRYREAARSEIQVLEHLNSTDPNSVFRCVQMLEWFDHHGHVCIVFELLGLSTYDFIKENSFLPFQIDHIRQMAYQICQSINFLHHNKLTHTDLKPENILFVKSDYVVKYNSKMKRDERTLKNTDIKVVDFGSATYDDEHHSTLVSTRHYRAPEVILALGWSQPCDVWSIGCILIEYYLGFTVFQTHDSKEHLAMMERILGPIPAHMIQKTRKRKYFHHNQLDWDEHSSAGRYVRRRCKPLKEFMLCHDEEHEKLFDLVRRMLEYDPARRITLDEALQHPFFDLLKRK

[4] = biological target: Dual specificity protein kinase CLK3 (Mus musculus) (UniProt O35492); assay: Inhibition of mouse recombinant GST-fused CLK3 expressed in Escherichia coli at 0.003 to 10 uM using RS peptide as substrate after 30 mins in presence of [gamma-33P]ATP by scintillation counting method
Dual specificity protein kinase CLK3 (Mus musculus), sequence (O35492 whole entry, the tested form may be a part): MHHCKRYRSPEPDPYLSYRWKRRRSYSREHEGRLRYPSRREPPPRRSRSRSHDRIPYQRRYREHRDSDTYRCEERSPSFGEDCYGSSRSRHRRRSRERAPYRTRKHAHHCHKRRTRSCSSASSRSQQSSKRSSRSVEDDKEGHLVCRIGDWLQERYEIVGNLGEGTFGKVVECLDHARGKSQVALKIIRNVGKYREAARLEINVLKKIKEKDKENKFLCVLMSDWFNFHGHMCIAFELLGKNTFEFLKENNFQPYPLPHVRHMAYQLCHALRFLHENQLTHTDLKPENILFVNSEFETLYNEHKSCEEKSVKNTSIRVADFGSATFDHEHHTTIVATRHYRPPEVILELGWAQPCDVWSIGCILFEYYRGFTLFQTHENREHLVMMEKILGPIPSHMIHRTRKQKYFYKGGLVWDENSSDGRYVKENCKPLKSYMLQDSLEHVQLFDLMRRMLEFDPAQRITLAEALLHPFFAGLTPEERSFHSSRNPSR

[5] = biological target: T2, Dual specificity tyrosine-phosphorylation-regulated kinase 3 (Homo sapiens) (UniProt O43781); assay: Inhibition of human recombinant GST-fused DYRK3 expressed in Escherichia coli at 0.003 to 10 uM using RS peptide as substrate after 30 mins in presence of [gamma-33P]ATP by scintillation counting method
T2 sequence (whole entry): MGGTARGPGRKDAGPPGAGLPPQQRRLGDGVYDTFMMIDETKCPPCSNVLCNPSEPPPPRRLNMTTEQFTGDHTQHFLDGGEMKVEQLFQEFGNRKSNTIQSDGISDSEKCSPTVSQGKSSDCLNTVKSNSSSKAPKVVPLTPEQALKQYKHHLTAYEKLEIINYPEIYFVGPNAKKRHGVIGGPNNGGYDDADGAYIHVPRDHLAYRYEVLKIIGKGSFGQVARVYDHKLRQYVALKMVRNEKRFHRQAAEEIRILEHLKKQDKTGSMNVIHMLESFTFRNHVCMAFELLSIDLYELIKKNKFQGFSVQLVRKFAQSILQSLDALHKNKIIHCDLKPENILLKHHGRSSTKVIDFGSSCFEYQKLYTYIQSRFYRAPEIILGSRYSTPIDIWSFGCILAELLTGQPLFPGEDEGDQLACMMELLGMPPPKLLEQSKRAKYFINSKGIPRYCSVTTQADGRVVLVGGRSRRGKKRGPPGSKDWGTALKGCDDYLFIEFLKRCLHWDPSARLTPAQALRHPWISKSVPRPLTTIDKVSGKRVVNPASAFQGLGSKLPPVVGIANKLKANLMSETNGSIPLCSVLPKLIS

[6] = biological target: Dual specificity tyrosine-phosphorylation-regulated kinase 1B (Homo sapiens) (UniProt Q9Y463); assay: Inhibition of human recombinant GST-fused DYRK1B expressed in Escherichia coli at 0.003 to 10 uM using RS peptide as substrate after 30 mins in presence of [gamma-33P]ATP by scintillation counting method
Dual specificity tyrosine-phosphorylation-regulated kinase 1B (Homo sapiens), sequence (Q9Y463 whole entry, looked up, the tested form may be a part): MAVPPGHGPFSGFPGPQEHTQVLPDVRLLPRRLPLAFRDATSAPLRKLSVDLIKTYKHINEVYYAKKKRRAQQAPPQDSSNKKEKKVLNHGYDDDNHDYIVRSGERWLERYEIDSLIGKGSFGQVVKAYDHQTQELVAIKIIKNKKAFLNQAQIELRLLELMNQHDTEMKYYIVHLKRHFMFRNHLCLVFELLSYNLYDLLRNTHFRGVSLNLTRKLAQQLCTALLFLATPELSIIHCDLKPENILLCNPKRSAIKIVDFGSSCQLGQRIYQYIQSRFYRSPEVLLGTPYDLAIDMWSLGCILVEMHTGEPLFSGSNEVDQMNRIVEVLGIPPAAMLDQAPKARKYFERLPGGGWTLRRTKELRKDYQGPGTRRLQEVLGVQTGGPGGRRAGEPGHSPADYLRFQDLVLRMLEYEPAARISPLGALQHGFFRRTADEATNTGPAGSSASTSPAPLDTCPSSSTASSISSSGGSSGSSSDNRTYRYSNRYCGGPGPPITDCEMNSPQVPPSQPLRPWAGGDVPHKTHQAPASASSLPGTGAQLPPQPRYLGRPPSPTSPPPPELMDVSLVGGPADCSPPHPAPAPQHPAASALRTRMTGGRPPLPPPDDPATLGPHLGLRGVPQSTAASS

[7] = Inhibition of porcine brain CK1delta/epsilon using CKS peptide as substrate after 30 mins in presence of [gamma-33P]ATP by scintillation counting method; set-up: species or system Sus scrofa
[8] = biological target: CDK2/Cyclin A2 (Homo sapiens) (UniProt P24941+P20248); assay: Inhibition of CDK2/cyclin A (unknown origin) at 0.003 to 10 uM after 30 mins in presence of [gamma-33P]ATP by scintillation counting method; assay type: protein-complex assay
Sus scrofa = organism: Sus scrofa; assay: Inhibition of porcine brain CK1delta/epsilon at 0.003 to 10 uM using CKS peptide as substrate after 30 mins in presence of [gamma-33P]ATP by scintillation counting method
[9] = biological target: Dual specificity protein kinase CLK1 (Mus musculus) (UniProt P22518); assay: Inhibition of mouse recombinant GST-fused CLK1 expressed in Escherichia coli at 0.003 to 10 uM using RS peptide as substrate after 30 mins in presence of [gamma-33P]ATP by scintillation counting method
Dual specificity protein kinase CLK1 (Mus musculus), sequence (P22518 whole entry, looked up, the tested form may be a part): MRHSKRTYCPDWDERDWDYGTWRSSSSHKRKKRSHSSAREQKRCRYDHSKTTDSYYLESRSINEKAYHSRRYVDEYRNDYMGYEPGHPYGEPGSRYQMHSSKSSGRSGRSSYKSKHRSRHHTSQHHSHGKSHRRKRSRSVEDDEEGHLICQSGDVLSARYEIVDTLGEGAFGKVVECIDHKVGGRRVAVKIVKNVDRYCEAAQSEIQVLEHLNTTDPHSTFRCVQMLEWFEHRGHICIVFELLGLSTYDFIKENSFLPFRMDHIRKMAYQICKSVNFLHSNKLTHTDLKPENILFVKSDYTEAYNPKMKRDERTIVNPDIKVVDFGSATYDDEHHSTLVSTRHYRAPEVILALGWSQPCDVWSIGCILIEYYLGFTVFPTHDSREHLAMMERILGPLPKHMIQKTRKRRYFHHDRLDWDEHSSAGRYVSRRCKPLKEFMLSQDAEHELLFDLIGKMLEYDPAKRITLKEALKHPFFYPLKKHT

Homo sapiens = organism: Homo sapiens; assay: Inhibition of GSK3 (unknown origin) at 0.003 to 10 uM using GS-1 as substrate after 30 mins in presence of [gamma-33P]ATP by scintillation counting method
[10] = biological target: Dual specificity tyrosine-phosphorylation-regulated kinase 1A (Homo sapiens) (UniProt Q13627); assay: Inhibition of GST-fused DYRK1A (unknown origin) expressed in Escherichia coli at 0.003 to 10 uM using RS peptide as substrate after 30 mins in presence of [gamma-33P]ATP by scintillation counting method
[11] = biological target: CDK9/cyclin T1 (Homo sapiens) (UniProt O60563+P50750); assay: Inhibition of recombinant human CDK9/cyclin T expressed in insect cells at 0.003 to 10 uM using CDK7/9-Tide as substrate after 30 mins in presence of [gamma-33P]ATP by scintillation counting method
[12] = biological target: Cyclin-dependent kinase 5/CDK5 activator 1 (Homo sapiens) (UniProt Q00535+Q15078); assay: Inhibition of recombinant human CDK5/p25 expressed in Escherichia coli at 0.003 to 10 uM using histone H1 as substrate after 30 mins in presence of [gamma-33P]ATP by scintillation counting method
Cyclin-dependent kinase 5/CDK5 activator 1 (Homo sapiens), sequence (Q00535 whole entry): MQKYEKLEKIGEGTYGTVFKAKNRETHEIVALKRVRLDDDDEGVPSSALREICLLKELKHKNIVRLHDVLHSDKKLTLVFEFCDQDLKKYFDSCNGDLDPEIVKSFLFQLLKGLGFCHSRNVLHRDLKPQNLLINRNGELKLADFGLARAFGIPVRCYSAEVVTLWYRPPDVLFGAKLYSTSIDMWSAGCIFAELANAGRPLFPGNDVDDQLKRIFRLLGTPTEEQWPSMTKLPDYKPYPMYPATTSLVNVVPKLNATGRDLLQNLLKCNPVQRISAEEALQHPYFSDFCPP
Cyclin-dependent kinase 5/CDK5 activator 1 (Homo sapiens), sequence (Q15078 99-307 partner limits assumed): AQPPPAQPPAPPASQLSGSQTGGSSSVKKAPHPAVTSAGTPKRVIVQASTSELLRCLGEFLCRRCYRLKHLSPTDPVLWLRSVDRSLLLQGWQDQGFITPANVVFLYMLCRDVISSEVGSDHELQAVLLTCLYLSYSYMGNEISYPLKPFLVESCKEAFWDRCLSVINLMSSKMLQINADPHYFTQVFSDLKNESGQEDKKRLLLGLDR

inhibition [1] | inhibition (Leishmania major) | inhibition [2] | inhibition [3] | inhibition [4] | inhibition [5] | inhibition [6] | IC50 [7] | inhibition [8] | inhibition (Sus scrofa) | inhibition [9] | inhibition (Homo sapiens) | inhibition [10] | inhibition [11] | inhibition [12] | SMILES
inactive | inactive | inactive | inactive | inactive | inactive | inactive | 6 µM | inactive | – | – | – | – | – | – | ClC[N@@+]12CCCC/C=C\CC[C@@H]3C=C4CN(CCCC/C=C\CC[C@H](C1)[C@H]4CC2)C3
– | – | – | – | – | – | – | – | – | inactive | inactive | inactive | inactive | inactive | inactive | C1=C2CN3CCCC/C=C\CC[C@@H]4CN(CCCC/C=C\CC[C@H]1C3)CC[C@@H]24
